{"source": "patent US20110045982A1", "about": "“HERBICIDAL COMPOSITION” (NOF CORPORATION, priority 2009, published 2011)", "data": [{"tested_on": "Japanese white rabbits", "conditions": "hydrolysate of base compound, 50% in purified water, 0.1 mL instilled, three male rabbits; observed 1, 6, 12 and 24 hr", "protocol": "Assuming that the base compound is hydrolyzed in the natural world, the biological reaction of hydrolysate was evaluated by eye irritancy. To be specific, the base compound (10 g) shown in Table 1 was added to 100 mL of water, and the mixture was adjusted to pH 10 with an aqueous sodium hydroxide solution. The mixture was placed in a flask, heated to 80° C., and stirred for 1 hr while adding an aqueous sodium hydroxide solution as appropriate every 10 min to maintain pH 10. The mixture was adjusted to pH 3.5 with an aqueous hydrochloric acid solution, and the mixture was washed 3 times with hexane to remove fatty acid. The solution was neutralized with an aqueous sodium hydroxide solution, evaporated and filtered to remove sodium chloride. The viscous liquid was diluted with purified water to a concentration of 50% and used as an eye irritancy measurement sample.\nUsing three male Japanese white rabbits per sample, the above-mentioned eye irritancy measurement sample (0.1 mL) was instilled into the unilateral intracapsular conjunctiva of each test animal, and the upper and lower eyelids were gently closed and maintained for about 1 sec. The other eye was used as control without treatment. After instillation, the cornea, iris, conjunctiva and the like were observed 1, 6, 12 and 24 hr later.", "values": [{"compound": "CCCCCCCCC(=O)OCCO", "note": "[compound 4, ethylene glycol monopelargric acid ester, reference compound]", "eye irritancy of hydrolysate": "problematic"}, {"compound": "CCCCCCCCCCCC(=O)OCC(O)CO", "note": "(stereo not drawn) [Ex. 7, Glycerol monolauric acid ester]", "eye irritancy of hydrolysate": "no problem"}, {"compound": "CCCCCCCC(=O)OCC(COC(=O)CCCCCCC)OC(=O)CCCCCCC", "note": "[Ex. 1, Glycerol tricaprylic acid ester]", "eye irritancy of hydrolysate": "no problem"}]}]}
